Experimental data: PubChem BioAssay AID1996
Values after ≈ are worked out from the molar mass of the structure shown.

details: buffer; pH 7.4; 200.0 µM

solubility kinetic [µg/mL] | SMILES
22.7 (≈ 64.2 µM) | Cc1cccc(C(=O)Nc2ccc(NC(=O)CN3CCOCC3)cc2)c1
> 44.2 | CSc1ncccc1C(=O)OCC(=O)NC1CCCC1
56.1 (≈ 147 µM) | NS(=O)(=O)c1ccc(CNC(=O)C(c2ccccc2)c2ccccc2)cc1
> 50.1 | COC(=O)c1ccccc1Oc1ccc(NC(=O)CCCl)cc1
> 40.5 | Cc1ccccc1NC(=O)COC(=O)c1cccnc1
> 59.2 | NS(=O)(=O)c1cccc(NC(=O)COC(=O)CSCc2ccccc2)c1
45 (≈ 143 µM) | COC(=O)c1cc(S(=O)(=O)N(C)C2CCCCC2)cn1C
20.9 (≈ 92 µM) | Cc1ccccc1N=Cc1cccc(O)c1O
> 47.6 | O=S(=O)(NCc1ccccn1)c1cc(Cl)ccc1Cl
> 52.2 | O=C(COc1ccccc1Cl)NCCCNC(=O)c1ccccn1
> 36.9 | O=C(Cn1c(=O)oc2ccccc21)N1CCCC1
> 41.3 | O=C(COC(=O)C1CC1)Nc1ccc2[nH]c(=O)[nH]c2c1
> 51.7 | CC(OC(=O)CC1CC2CCC1C2)C(=O)Nc1ccc(C(N)=O)cc1 (configuration not stated)
17.9 (≈ 56.9 µM) | CN(C)c1cccc(C(=O)NCCCSc2ccccc2)c1
> 41 | O=C(c1c(F)cccc1F)N1CCCc2ccccc21
> 40.4 | Cc1cc(C)n(/C(=C/N(C)C)C(=O)c2ccccc2)n1
31.3 (≈ 141 µM) | OC(CCN1CCOCC1)c1ccccc1 (configuration not stated)
22.5 (≈ 73 µM) | O=C1CCCN1c1ccc(S(=O)(=O)N2CCCCC2)cc1
2.4 (≈ 7.26 µM) | O=C1COc2ccc(S(=O)(=O)N3CCc4ccccc43)cc2N1
< 0.2 | Cc1noc2ncnc(Oc3ccc(C(C)(C)C)cc3)c12
> 46.6 | O=C(NCC(=O)N1CC=C(c2ccccc2)CC1)c1ccco1
0.9 (≈ 2.08 µM) | N/C(=N\OC(=O)c1ccc(Cl)c(Cl)c1)c1cccc(CSc2ccccn2)c1

solubility kinetic [µg/mL] | SMILES
21 (≈ 70.1 µM) | Cc1cc(C)c2cc(C(=O)N(C)C3CCN(C)CC3)[nH]c2c1
32.5 (≈ 101 µM) | Nc1nc(COc2ccccc2C=O)nc(Nc2ccccc2)n1
> 46.9 | COCCN1CN=C(NS(=O)(=O)c2ccc(C)cc2)NC1
> 57.3 | COc1cccc(OC)c1OCCNCC1COc2ccccc2O1.Cl (configuration not stated)
36.1 (≈ 143 µM) | O=S(=O)(c1ccc2c(c1)CCN2)N1CCCC1
24.4 (≈ 111 µM) | CC1CCOC2(O1)C(=O)Nc1ccccc12 (configuration not stated)
> 41.6 | COc1ccccc1NC(=O)COC(=O)C1CCCC1
0.7 (≈ 2.13 µM) | COc1ccc(-c2cc(CS(=O)(=O)c3ccccc3)on2)cc1
22.5 (≈ 81.3 µM) | Clc1ccc(N2CCN(Cc3ccco3)CC2)cc1
> 46.7 | CCc1ccc(CN(C)C(=O)c2ccc3c(c2)OCCO3)cc1
4.3 (≈ 15.1 µM) | COC(=O)c1ccc(NC(=O)Nc2ccccc2C)cc1
> 51.6 | O=C(COC(=O)c1ccc(Br)o1)NCC1CCCCC1
1.3 (≈ 3.88 µM) | Cc1cccc(C)c1NC(=O)C(=O)NCCc1c[nH]c2ccccc12
43.6 (≈ 140 µM) | COc1ccccc1C(=O)Nc1ccc2c(c1)n(C)c(=O)n2C
> 36.7 | CC[C@@H]1C(=O)OC[C@@H]1Cc1cncn1C.Cl
3.4 (≈ 10.7 µM) | Cc1cccc(NC(=O)c2ccc(NCCO)c([N+](=O)[O-])c2)n1
> 38.5 | CC(C)C[C@H](NC(=O)N1CCCCCC1)C(=O)O
0.5 (≈ 1.6 µM) | CCn1c(C)c(C)c2cc(C(=O)NC3CCCCCC3)ccc21
> 36.9 | COc1ccc(NC(=O)c2c(N)cnn2C)cc1
41.3 (≈ 126 µM) | Cc1ccc(C2(c3noc(CN4CCOCC4)n3)CCCC2)cc1
> 36.3 | O=C(Nc1ccccn1)c1ccc2c(c1)OCO2
< 0.3 | COc1ccc(NC(=O)c2cc(-c3ccccc3)on2)cc1OC

solubility kinetic [µg/mL] | SMILES
32.2 (≈ 116 µM) | CN(C)CCC#CC1(O)c2ccccc2-c2ccccc21
> 51.2 | COc1ccc(C2=NOC(C(=O)NCc3cccnc3)C2)cc1OC (configuration not stated)
> 45.9 | O=C(NCCCN1CCCC1=O)Nc1ccc([N+](=O)[O-])cc1
> 48.4 | CC(C)CNS(=O)(=O)c1cc2c3c(c1)CCC(=O)N3CCC2
54.5 (≈ 146 µM) | Cc1c(NC(=O)c2ccccc2NC(=O)c2ccccc2)cccc1C(=O)O
> 45.3 | COc1ccc(C)cc1NC(=O)CCNC(=O)c1ccco1
39.6 (≈ 142 µM) | CCOC(=O)c1ccc(NC(=S)N2CCCC2)cc1
2.3 (≈ 7.22 µM) | Cc1ccccc1NS(=O)(=O)c1ccc2c(c1)oc(=O)n2C
4.2 (≈ 14.2 µM) | O=Cc1c(NCc2ccccc2F)c2ccccc2[nH]c1=O
29.8 (≈ 128 µM) | Cc1ccc(CC(=O)Nc2nccs2)cc1
> 52.8 | Cl.O=C(NCCCN1CCOCC1)C(=O)c1c[nH]c2ccccc12
44.6 (≈ 132 µM) | Cc1c(/C=C(\CC(=O)O)c2nc3ccccc3s2)cc(C#N)n1C
37.2 (≈ 131 µM) | CC1(C)C(=O)N(c2ccccc2F)C(=O)c2ccccc21
48.8 (≈ 142 µM) | CC(=O)c1ccc(NC(=O)CCNC(=O)c2ccccc2Cl)cc1
38.4 (≈ 103 µM) | CN1CCN(c2ccc(Cl)cc2NC(=O)/C=C/c2ccc(F)cc2)CC1
24.5 (≈ 121 µM) | Cc1ccccc1OCCn1ccnc1
45.7 (≈ 147 µM) | CN(Cc1ccccn1)Cc1nc(COc2ccccc2)no1
22.6 (≈ 86.5 µM) | CC1(C)CC2CC(C)(CN2/C=C2/CCCCC2=O)C1 (configuration not stated)
> 46.1 | CN(CC#CC(O)(c1ccccc1)c1ccccc1)C(C)(C)C
> 45.4 | O=C(O)CSc1ncnc2sc(-c3ccccc3)cc12
2.5 (≈ 7.71 µM) | Cc1nc(NCc2cccnc2)c2c3c(sc2n1)CC(C)CC3 (configuration not stated)
4.4 (≈ 16.7 µM) | CCCc1cc(=O)[nH]c(Nc2ccc(Cl)cc2)n1

solubility kinetic [µg/mL] | SMILES
> 33.4 | Cc1cccc2c3c([nH]c12)CCNC3.Cl
> 51.6 | CC1(C(=O)O)CCC(C(=O)Nc2ccc(Cl)c(Cl)c2)C1(C)C (configuration not stated)
6.8 (≈ 22.3 µM) | CCN(CC)c1cccc(OC(=O)c2cccnc2Cl)c1
18.8 (≈ 40.7 µM) | CCN1CCN(S(=O)(=O)c2ccc(Cl)c(C(=O)NCc3nc4ccccc4[nH]3)c2)CC1
1 (≈ 2.44 µM) | Cc1ccc2[nH]c(C(=O)N3CCN(C(c4ccccc4)c4ccccc4)CC3)cc2c1
0.7 (≈ 2.26 µM) | COc1ccc2oc(=O)c(C(=O)NCc3ccccc3)cc2c1
40.2 (≈ 142 µM) | Cc1cc(/C=C2\NC(=O)NC2=O)c(C)n1-c1cccnc1
< 0.7 | O=C(/C=C/c1c(F)cccc1Cl)NCc1ccc2c(c1)OCO2
> 40.7 | CCN(CC)C(=O)Nc1ccc(Br)cc1
29.4 (≈ 96.3 µM) | COc1ccccc1NC(=O)C(C)OC(=O)CC1CCCC1 (configuration not stated)
5.4 (≈ 13.1 µM) | COc1cc(NC(=O)c2ccc(OCc3c(C)noc3C)c(OC)c2)cc(OC)c1
1.8 (≈ 5.44 µM) | N#Cc1nc(-c2cccc(Cl)c2)oc1N1CCC(C(N)=O)CC1
> 45.2 | CCN1CCCC1CNC(=O)c1cc2ccc(OC)cc2[nH]1 (configuration not stated)
> 44.1 | Nc1nc(SCC(=O)Nc2ccc([N+](=O)[O-])cc2)n[nH]1
1.9 (≈ 5.17 µM) | C=C(C)COc1ccc(-c2nc(N)ncc2-c2ccc(Cl)cc2)c(O)c1
23.3 (≈ 106 µM) | CCCCC(=O)Nc1ccccc1C(C)C
38.3 (≈ 128 µM) | Cc1cc(C)cc(OCC(=O)O/N=C(\N)c2cccnc2)c1
27 (≈ 73.5 µM) | COc1cc2c(cc1OC)CN(C(=O)c1cc(Cl)nc(Cl)c1)CC2
8 (≈ 25.4 µM) | Cc1cc(Br)ccc1N=C1C(=O)Nc2ccccc21

SMILES | solubility kinetic [µg/mL]
CC(C)(C)C(=O)NC1CCSC1=O (configuration not stated) | > 30.2
O=C(O)C(=O)O.OC1(c2ccccc2)CCNC2CCCCC21 (configuration not stated) | > 48.2
